Tests used:
leukocytes = experiment: Leukocyte migration to the peritoneal cavity of mice infected with E. coli ATCC8739; type: in vivo, C57BL/6 mice; settings: mast-MO 10 mg Kg^−1, mast-L 5 mg Kg^−1
Procedure: To test whether the FLPII motif within the mast-MO sequence led to increased immunomodulatory and chemotactic properties with respect to mast-L, ELISA experiments were performed using the peritoneal fluid collected from mice (FIG. 5a). C57BL/6 mice were infected with both Gram-negative and Gram-positive pathogens and administered either mast-L or mast-MO intraperitoneally. For mice infected with E. coli ATCC8739, we monitored the peritoneal cavity to detect and quantify the release and presence of several immune mediators (FIG. 4E). […] This effect was similar to the positive control group of mice treated with […] (TGA) (FIG. 4B). […] We monitored, via ELISAs, the cytokine profiles present within the peritoneal cavity of mice infected with E. coli ATCC8739 and S. aureus ATCC29213 (FIGS. 4E and FIG. 4F, respectively) and treated with a single dose of peptide. […]
Isolation of leukocytes from the peritoneal cavity of mice. Leukocyte migration into the peritoneal cavity of uninfected C57BL/6 mice treated with 10 mg Kg^−1 of peptides was evaluated to assess the chemotactic activity of the peptides, as previously described (11). […] Leukocyte counts present in the in peritoneal cavity of mice infected with E. coli ATCC 8739 were quantified. […] The results are expressed as the number of cells per cavity (48).

IL-12, TNFα, IL-6 = experiment: Cytokines in peritoneal fluid of infected mice (ELISA); type: in vivo, C57BL/6 mice; settings: tracked for 48 h; mast-MO 10 mg Kg^−1, mast-L 5 mg Kg^−1
Procedure: […] PBS and imipenem (10 mg Kg^−1) were used as negative and positive controls, respectively. Data were expressed as mean±standard deviation. Statistical analysis was performed using Bonferroni test. ***p<0.001 as significant compared to the control.
To test whether the FLPII motif within the mast-MO sequence led to increased immunomodulatory and chemotactic properties with respect to mast-L, ELISA experiments were performed using the peritoneal fluid collected from mice (FIG. 5a). C57BL/6 mice were infected with both Gram-negative and Gram-positive pathogens and administered either mast-L or mast-MO intraperitoneally. For mice infected with E. coli ATCC8739, we monitored the peritoneal cavity to detect and quantify the release and presence of several immune mediators (FIG. 4E). […] This effect was similar to the positive control group of mice treated with […] (TGA) (FIG. 4B). […] After 24 h, the leukocyte recruitment levels in mast-MO-treated mice dropped to ˜10^6, likely attributed to the resolution of the infection by the peptide (FIGS. 5B and 5C). […] We monitored, via ELISAs, the cytokine profiles present within the peritoneal cavity of mice infected with E. coli ATCC8739 and S. aureus ATCC29213 (FIGS. 4E and FIG. 4F, respectively) and treated with a single dose of peptide. […]

[1] = system: different human and murine cell lines; experiment: Hemolysis and cytotoxicity, text summary over the cell lines of Table 2; type: cell-based; settings: range over cell lines
Procedure: Once the mechanisms by which the peptide targeted bacterial cells was elucidawted, the effect of the pentapeptide motif insertion on cytotoxicity against mammalian cells was evaluated.

[2] = system: human embryonic kidney (HEK293) cells; experiment: Cytotoxicity against HEK293 cells; type: cell-based; settings: HEK293
Source text: The FLPII motif was chosen for the permutations to preserve the natural antimicrobial activity of mast-L and also conserve the hydrophobic content inserted in the N-terminal extremity for the initial design of mast-MO. Next, we assessed the antimicrobial (FIG. 10) and cytotoxic activities of the mast-MO analog library against HEK293 cells (FIG. 6C). These specific cell line was chosen as it derives from human embryonic kidney cells and potential antimicrobial (i.e., AMPs, antibiotics) toxicity affects the kidneys, which are responsible for clearing such molecules (34). Also measured was whether the peptides aggregated at the highest concentration tested (128 μmoL^−1) (Table 7) since the motif inserted is composed of residues with aliphatic or aromatic side chain groups that may be prone to aggregation when in proximity within the primary peptide sequence, thus altering biological activity. Minor changes to the first five residues inserted in the mast-MO primary sequence led to a pronounced decrease in cytotoxic activity (2.5 to 5-fold) compared to mast-MO (FIG. 6C).

[3] = system: E. coli ATCC8739 and clinical isolate E. coli 1812446 (KPC-positive); experiment: Systemic sepsis infection mouse model, E. coli strains; type: in vivo; settings: 5 mg Kg^−1 i.p., 3 h post-infection
Procedure: FIG. 5A-5I pertains to a study of the anti-infective activity of mast-MO against Gram-negative and Gram-positive pathogens in a lethal sepsis infection model. In FIG. 5A mice were infected with bacteria, treated with each peptide or antibiotic and monitored for 8 days. Survival and cell counts after 24 h, respectively, are shown for E. coli ATCC8739 (2×10^4 CFU/mL inoculum) FIG. 5B and FIG. 5C, S. aureus ATCC29213 (2×10^9 CFU/mL inoculum) FIG. 5D and FIG. 5E, E. coli 1812446 (KPC-positive) (2×10^4 CFU inoculum) FIG. 5F and FIG. 5G, and S. aureus (MRSA) ATCC33591 (2×10^9 CFU inoculum) FIG. 5H and FIG. 5I. Mice were treated intraperitoneally (i.p.) with 1, 5 and 10 mg Kg^−1 of mast-L, mast-MO or 10 mg Kg^−1 of the antibiotics gentamicin and imipenem. PBS was used as a control for the untreated group of mice. Treatments were administered 3 h post-infection. Data are expressed as the mean±standard deviation. Statistical analysis was performed using Bonferroni test. […], **p<0.01, ***p<0.001 compared to the untreated control.
Systemic bacterial infection mouse model. […] Animals were humanely killed 24 h after bacterial administration.

[4] = system: murine fibroblasts (L929); experiment: Cytotoxicity against L929 fibroblasts (MTT); type: cell-based; settings: L929
Procedure: Mammalian cells toxicity assays. L929 mice fibroblasts (Rio de Janeiro Cell Bank) and SPCs were seeded in 96-well microtiter plates in a concentration of 1.0×10^5 cells per well, in DMEM medium, supplemented with different concentrations of tested peptides (1-600 μM). After 48 h incubation, a thiazolyl blue tetrazolium bromide (MTT) protocol was performed. Briefly, 60% of the medium was removed, and 10 μL of MTT (5 mg mL^−1) (Sigma, USA) solution was added to each well and the plate was incubated for 4 h, in 5% CO2, at 37° C. The blue formazan product generated was dissolved by the addition of 100 μL of 100% DMSO (Mallinckrodt, Germany) per well. Plates were then gently swirled for 5 min, at room temperature, to dissolve the precipitate. The absorbance was monitored at 575 nm using a microplate spectrophotometer (Bio-Tek, USA). Cytotoxicity was determined as a percentage of the maximum value after subtracting the background. The results were expressed as the percentage of each sample compared to the negative control (PBS buffer, pH 7.4) and cell culture was incubated in a lysis buffer (10 mM Tris, pH 7.4, 1 mM ethylenediamine tetraacetic acid (EDTA), and 0.1% Triton X-100).

NLKALAALAKKIL [Mast-L]
Leukocyte recruitment over the time period tested, in words (leukocytes): did not significantly induce leukocyte recruitment | Pro-inflammatory cytokines IL-12, TNFα and IL-6 in the peritoneal cavity (IL-12, TNFα, IL-6): repressed | Concentration hemolytic and toxic towards human and murine cell lines [1]: 7 to 50 µmol⁻¹ | Cytotoxic activity, Peptide Concentration [2]: 50 µmol/L | Survival [3]: 40 to 60% | Cytotoxic activity, Peptide Concentration [4]: 10 µmol/L

Reference: patent US12116387B2, “Antimicrobial peptides” (priority 2021, dated 2024)
